Where a SMILES comes first, the peptide text is derived from it.
Molecular target: T1, angiotensin I converting enzyme (ACE) (Oryctolagus cuniculus, UniProt P12822)
T1 construct: ACE (from rabbit lung; 2.0 units/mg of protein); purchased Sigma Chemical Company (St. Louis, MO, USA); host or cells: rabbit lung (tissue-derived)
T1 sequence (P12822 34-1310): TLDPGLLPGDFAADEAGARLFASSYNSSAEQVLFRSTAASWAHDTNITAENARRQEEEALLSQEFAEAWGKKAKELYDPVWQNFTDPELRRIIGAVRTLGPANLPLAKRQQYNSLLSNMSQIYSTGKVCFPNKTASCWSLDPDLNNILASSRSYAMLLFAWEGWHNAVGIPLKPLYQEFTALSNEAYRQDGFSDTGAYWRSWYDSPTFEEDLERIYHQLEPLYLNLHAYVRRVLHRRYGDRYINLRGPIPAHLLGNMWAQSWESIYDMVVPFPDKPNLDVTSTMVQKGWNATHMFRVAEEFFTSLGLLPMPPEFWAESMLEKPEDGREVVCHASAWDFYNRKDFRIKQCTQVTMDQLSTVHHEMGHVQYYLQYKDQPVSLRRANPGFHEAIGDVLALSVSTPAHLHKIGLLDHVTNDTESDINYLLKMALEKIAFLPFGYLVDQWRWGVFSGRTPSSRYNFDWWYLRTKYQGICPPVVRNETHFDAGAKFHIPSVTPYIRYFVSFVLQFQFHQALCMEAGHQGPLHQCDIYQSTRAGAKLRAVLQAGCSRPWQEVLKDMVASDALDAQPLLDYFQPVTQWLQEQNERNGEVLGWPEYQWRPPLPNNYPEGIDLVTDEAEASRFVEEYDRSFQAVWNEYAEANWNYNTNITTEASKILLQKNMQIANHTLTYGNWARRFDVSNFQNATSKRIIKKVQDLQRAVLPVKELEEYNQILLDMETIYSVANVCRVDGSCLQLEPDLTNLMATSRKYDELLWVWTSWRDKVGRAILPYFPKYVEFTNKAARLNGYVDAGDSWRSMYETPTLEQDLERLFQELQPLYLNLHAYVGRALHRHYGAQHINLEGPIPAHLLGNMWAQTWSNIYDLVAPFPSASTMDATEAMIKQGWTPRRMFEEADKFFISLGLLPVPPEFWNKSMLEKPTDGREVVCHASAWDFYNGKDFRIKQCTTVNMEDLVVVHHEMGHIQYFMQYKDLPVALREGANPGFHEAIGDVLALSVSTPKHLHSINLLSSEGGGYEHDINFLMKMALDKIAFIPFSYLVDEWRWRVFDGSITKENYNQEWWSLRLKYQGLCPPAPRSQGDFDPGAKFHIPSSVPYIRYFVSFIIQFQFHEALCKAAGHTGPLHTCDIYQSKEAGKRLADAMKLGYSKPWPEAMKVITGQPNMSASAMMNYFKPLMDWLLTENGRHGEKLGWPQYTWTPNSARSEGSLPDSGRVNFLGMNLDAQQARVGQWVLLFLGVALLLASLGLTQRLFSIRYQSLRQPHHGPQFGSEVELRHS
Experiment: ACE inhibitory activity (IC50 and inhibitory ratio IP)
Type: biochemical
Conditions: ACE from rabbit lung
Procedure: Lizard fish was purchased from a local market in Nanning, China, during the fishing season. It was identified by engineer Cuican at Beihai Institute of Oceanology. Its muscle was rapidly separated, dried with hot air (90 °C) over 8 h, powdered, and then stored in the cryogenic refrigerator. Agarose (BR) and NiSO4·6H2O (AR) were purchased from Sinopharm Chemical Reagent Co., (Beijing, China). Iminodiacetic acid (IDA) was purchased from Sinopharm Chemical Reagent Co., Ltd. (Beijing, China). ACE (from rabbit lung; 2.0 units/mg of protein) and hippuryl-L-histidyl-L-leucine (HHL) were purchased from the Sigma Chemical Company (St. Louis, MO, USA). All other reagents used were of analytical grade.
The affinity column was equilibrated at a flow rate of 1.5 mL·min^−1 with PBS. […] Fractions with affinity for Ni^2+ ion were eluted and monitored at 280 nm. […] The ACE-inhibitory activity of these fractions were determined, and the inhibitory ratios (IP) were calculated according to Wu et al.. The concentrations of protein were measured by the UV method using a wavelength of 280 nm, and the protein recovery rate was calculated as follows: (1) R=m/M×100% • R—Recovery rate of protein, %; • m—Protein content of the sample eluted from IMAC (IMAC fractions), mg; • M—Protein content of the sample before treatment of IMAC chromatographic procedures, mg.

IC50 (ACE inhibition, HHL listed as material, inhibitory ratios calculated according to Wu et al. [22]): 52 µM
IP% (inhibitory activity of fractions separated by RP-HPLC) (RP-HPLC fractions of F2 (Zorbax SB C18), inhibitory ratio according to Wu et al. [22], test concentration not given): 73.05%
SMILES: N=C(N)NCCC[C@H](NC(=O)[C@H](Cc1ccc(O)cc1)NC(=O)[C@@H](N)CCCNC(=N)N)C(=O)N1CCC[C@H]1C(=O)O [RYRP, Arg-Tyr-Arg-Pro] (H-RYRP-OH)

Reference: publication PMC5334609, “Separation and Characterization of Angiotensin I Converting Enzyme (ACE) Inhibitory Peptides from Saurida elongata Proteins Hydrolysate by IMAC-Ni^2+” (Marine Drugs, 2017)
